In series [1] the target is P2Y purinoceptor 12 (Homo sapiens, UniProt Q9H244). Nature of the series: Displacement of [125I] labeled ligand from human P2Y12 receptor in human platelets. In general terms: Displacement assays read how much labelled ligand stays bound in the presence of the test substance.
Series [2] can be described thus: Volume of distribution at steady state in rat at 3 mg/kg, iv. In kind it is ADME, organism-based. The arrangement: dose 3 mg/kg, route intravenous. Particulars: in vivo, read-out: Vdss.
A short description of series [3]: Half life in rat at 3 mg/kg, iv. Conditions: in vivo. It is filed as ADME, organism-based. More on the design: dose 3 mg/kg, route intravenous.
Series [4] in a line: Oral bioavailability in rat at 3 to 10 mg/kg. It is filed as ADME, organism-based. Particulars: in vivo.
In series [5] the test system is Hepatocyte. Description: Metabolic stability in human hepatocytes in presence of UDPGA relative to zileuton. In kind it is ADME, cell-based.
The test system of series [6] is Hepatocyte. Description: Metabolic stability in human hepatocytes in presence of NADPH relative to dextromethorphan. In kind it is ADME, cell-based.
Series [7] in a line: Plasma clearance in dog at 1 mg/kg, iv. It is filed as ADME, organism-based, Canis lupus familiaris. More on the design: dose 1 mg/kg, route intravenous.
Series [8] can be described thus: Volume of distribution at steady state in dog at 1 mg/kg, iv. In kind it is ADME, organism-based, Canis lupus familiaris. More on the design: dose 1 mg/kg, route intravenous. Particulars: in vivo, read-out: Vdss.
Series [9] in a line: Half life in dog at 1 mg/kg, iv. In kind it is ADME, organism-based, Canis lupus familiaris. More on the design: dose 1 mg/kg, route intravenous. Conditions: in vivo.
The nature of series [10]: Oral bioavailability in dog at 1 mg/kg. It is filed as ADME, organism-based, Canis lupus familiaris. Conditions: in vivo.
Series [11] is described as follows: in vivo. Particulars: rat, iv, 3 mg/kg.
Description: Plasma clearance in rat at 3 mg/kg, iv
The test system of series [12] is Canis familiaris. Nature of the series: Inhibition of ADP-induced platelet aggregation in po dosed dog. In kind it is functional, organism-based. Particulars: Canis lupus familiaris.

The source made the active and inactive calls. No cut-off for these calls is given here. Where only a bound is given, the exact number is not on record here.

By Ki is commonly meant a measure of affinity in units of concentration, obtained from inhibition or displacement. One may read the half-life as how long it takes for the measured level to halve. The bioavailability is dose-corrected exposure relative to a reference, in per cent. A word on the clearance: it is the rate of elimination divided by the concentration. Low values mean a low capacity for elimination, high ones a high capacity for elimination.

Chain of P2Y purinoceptor 12 (Q9H244 whole entry): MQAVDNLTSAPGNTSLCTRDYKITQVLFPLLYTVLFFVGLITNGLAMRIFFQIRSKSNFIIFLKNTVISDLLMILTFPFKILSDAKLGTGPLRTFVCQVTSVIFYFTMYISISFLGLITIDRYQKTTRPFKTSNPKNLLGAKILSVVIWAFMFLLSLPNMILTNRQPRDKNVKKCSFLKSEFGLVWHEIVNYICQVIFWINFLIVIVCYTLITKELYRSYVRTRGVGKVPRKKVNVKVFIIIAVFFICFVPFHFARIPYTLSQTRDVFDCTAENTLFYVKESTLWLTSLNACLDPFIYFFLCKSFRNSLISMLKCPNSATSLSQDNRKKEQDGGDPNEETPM

Turning to `OC[C@H]1C[C@@H](n2nnc3c(N[C@@H]4C[C@H]4c4ccc(F)c(F)c4)nc(SCCC(F)(F)F)nc32)[C@H](O)[C@@H]1O`, the affinity in series [1] corresponds to a Ki of 5.01 nM. For the same compound, the Vd in [2] is 2.7 L/kg; in series [8], 5.6 L/kg. Besides, the half-life in [3] is 3 h; in series [9], 4.8 h. The bioavailability in series [4] was 17%; in [10], 59%. In addition, the Stability result in series [5] is reported as “Stable”. Further, the Ratio in series [6] is on record as greater than 30. Besides, the values for the clearance in series [7] and in series [11] (plasma) were 16.5 mL/min/kg and 11 mL/min/kg, respectively.

In turn, `CCCCNc1nc(SCCC)nc2c1nnn2[C@@H]1C[C@H](CO)[C@@H](O)[C@H]1O` gave a Ki in [1] of 79.4 nM. Further, the Vd in series [2] amounted to 2.3 L/kg. The half-life in series [3] is 1.2 h. In series [4], this compound returned a bioavailability of less than 5%. Also, in series [11] (in vivo), the clearance was 29 mL/min/kg.

`CCCSc1nc(N[C@@H]2C[C@H]2c2ccc(F)c(F)c2)c2nnn([C@@H]3C[C@H](OCCO)[C@@H](O)[C@H]3O)c2n1` [TICAGRELOR] gave a Ki in series [1] of 2 nM. The Vd was found to be 3.8 L/kg in series [2] and 3 L/kg in [8]. The figures for the half-life in [3] and in [9] were 2.6 h and 2.9 h, respectively. Besides, the bioavailability in series [4] turned out to be 24%; in series [10], 72%. The Stability result in series [5] is recorded as “Stable”. Further, the Ratio in [6] turned out to be 24. Also, the clearance was found to be 9 mL/min/kg in series [7] and 21 mL/min/kg in [11] (plasma).

In the case of `CCCCNc1nc(SCCC)nc2c1nnn2[C@@H]1C[C@H](C(N)=O)[C@@H](O)[C@H]1O`, the affinity in series [1], expressed as Ki, was 20 nM. Also, in series [2], the Vd was determined as 1.6 L/kg. In series [3], this compound gave a half-life of 1.4 h. In addition, the bioavailability in [4] is less than 5%. This compound also registered a clearance in series [11] (plasma) of 21 mL/min/kg.

For `CCCSc1nc(N[C@@H]2C[C@H]2c2ccccc2)c2nnn([C@@H]3C[C@H](CO)[C@@H](O)[C@H]3O)c2n1` [listing 1 of 2 here], the result in series [12] was Active.

For the compound `OC[C@H]1C[C@@H](n2nnc3c(N[C@@H]4C[C@H]4c4ccccc4)nc(SCCC(F)(F)F)nc32)[C@H](O)[C@@H]1O`, in [1], the Ki was 5.01 nM. For the same compound, the Ratio in series [5] turned out to be 19. The Stability result in series [6] was “Stable”.

For `CCCSc1nc(N[C@@H]2C[C@H]2c2ccccc2)c2nnn([C@@H]3C[C@H](CO)[C@@H](O)[C@H]3O)c2n1` [listing 2 of 2 here], in series [1], the inhibition constant (Ki) was 5.01 nM. Besides, in [2], the Vd came out at 2.9 L/kg. Besides, in series [3], the half-life was 2.5 h. This compound showed a bioavailability in [4] of 35%. Further, the Ratio in series [5] is 5; in [6] it was greater than 30. This compound also returned a clearance in series [11] (plasma) of 16 mL/min/kg.

In series [1], `CCCSc1nc(N[C@@H]2C[C@H]2c2ccccc2)c2nnn([C@@H]3CC[C@@H](O)[C@H]3O)c2n1` showed a Ki of 2.51 nM. Further, the bioavailability in series [4] is 38%. Further, the Ratio in [5] was determined as 1.

With `OCCO[C@H]1C[C@@H](n2nnc3c(N[C@@H]4C[C@H]4c4ccc(F)c(F)c4)nc(SCCC(F)(F)F)nc32)[C@H](O)[C@@H]1O`, in series [1], the Ki was 0.631 nM. Also, in [2], the Vd came to 2.1 L/kg. Besides, the half-life in series [3] is 2.5 h. The bioavailability in series [4] amounted to 9%. In addition, in series [5], the Stability entry is listed as “Stable”. Also, the Ratio in series [6] is 32. Moreover, the clearance in series [11] (plasma) was found to be 12 mL/min/kg.

The compound `CCCSc1nc(N[C@@H]2C[C@H]2c2ccccc2)c2nnn([C@@H]3C[C@H](O)[C@@H](O)[C@H]3O)c2n1` had an inhibition constant (Ki) in series [1] of 2 nM. Besides, the bioavailability in [4] amounted to 50%. In addition, the Ratio in [5] is given as 3. For the same compound, in series [6], the Stability entry is “Stable”.

As to `CCCSc1nc(N[C@@H]2C[C@H]2c2ccccc2)c2nnn([C@@H]3C[C@H](C(N)=O)[C@@H](O)[C@H]3O)c2n1`, the affinity in [1], expressed as Ki, was 1.58 nM. In series [2], the Vd was found to be 2.2 L/kg. This compound gave a half-life in series [3] of 2 h. The bioavailability in series [4] is less than 5%. The compound further had a clearance in series [11] (plasma) of 20 mL/min/kg.

As for `CCCCNc1nc(SCCC)nc2c1nnn2[C@@H]1C[C@H](C(=O)O)[C@@H](O)[C@H]1O`, the Ki in series [1] is 5.01 nM. Also, the Vd in series [2] turned out to be 0.4 L/kg. The same compound showed a half-life in series [3] of 0.5 h. Also, in series [4], the bioavailability is less than 5%. The same compound returned a clearance in series [11] (plasma) of 30 mL/min/kg.

As to `CCCSc1nc(N[C@@H]2C[C@H]2c2ccccc2)c2nnn([C@@H]3C[C@H](OCCO)[C@@H](O)[C@H]3O)c2n1`, in series [1], the Ki was 3.16 nM. In [4], this compound had a bioavailability of 26%. The Ratio in [5] is recorded as 24; in [6], 13.

`CCCSc1nc(N[C@@H]2C[C@H]2c2ccccc2)c2nnn([C@@H]3C[C@H](C(=O)O)[C@@H](O)[C@H]3O)c2n1` had a Ki in [1] of 0.251 nM. In addition, the Vd in series [2] is 0.5 L/kg. Moreover, the half-life in series [3] was 0.5 h. This compound gave a clearance in [11] (plasma) of 16 mL/min/kg.

`CCCSc1nc(N[C@@H]2C[C@H]2c2ccccc2)c2nnn([C@@H]3C[C@H](CO)[C@@H](O)[C@H]3O)c2n1.Cl`: the inhibition constant Ki in series [1] was 6.31 nM. The bioavailability in series [4] came to 37%. In addition, the Ratio was 19 in series [5] and 27 in series [6].

The record behind these values is ChEMBL document CHEMBL1140463, “From ATP to AZD6140: the discovery of an orally active reversible P2Y12 receptor antagonist for the prevention of thrombosis” (Bioorg Med Chem Lett, 2007).
